In ChEMBL document CHEMBL5360642, “Assimiloside A, a Glycolipid with Immunomodulatory Activity from the Northwestern Pacific Marine Sponge Hymeniacidon assimilis” (2023) one finds Activity data, which are given here for 1 molecule.

Activity calls are given as the source filed them. The calls are words filed in the database; no cut-off is given here.

Experiment [1] has as its system RAW264.7. Briefly: Induction of ROS production in mouse RAW264.7 cells assessed as increase in intracellular ROS formation at 0.01 to 0.1 uM incubated for 3 hrs by DCFH2-DA staining based assay relative to control. The format is functional. The note with it: dose 0.01-0.1 µM.
The subject of experiment [2] is RAW264.7. Briefly: Induction of ROS production in mouse RAW264.7 cells assessed as increase in intracellular ROS formation at 1 uM incubated for 3 hrs by DCFH2-DA staining based assay relative to control. The format is functional, cell-based.
Experiment [3] has as its system RAW264.7. Briefly: Induction of ROS production in mouse RAW264.7 cells assessed as increase in intracellular ROS formation at 10 uM incubated for 3 hrs by DCFH2-DA staining based assay relative to control. The format is functional.
For experiment [4], the system named is RAW264.7. Briefly: Immunomodulatory activity in mouse RAW264.7 cells assessed as stimulation of lysosomal activity at 0.01 to 10 uM incubated for 2 hrs by acridine orange based fluorescence microplate reader analysis relative to control. Format: functional. The note with it: dose 0.01-10 µM.

`CC[C@@H](O)CCCCCCCCCC(CCCCCCCCCCC[C@@H]1CCC(=O)O1)O[C@@H]1O[C@H](CO[C@@H]2OC[C@@H](O)[C@H](O)[C@H]2O)[C@@H](O)[C@H](O)[C@H]1O[C@@H]1OC[C@@H](O)[C@H](O)[C@H]1O` (some centres undefined): the Activity with RAW264.7 [1] was 15%; in the experiment on RAW264.7 [3], 15%; in the experiment with RAW264.7 [4] it was 25%. Also, the result with RAW264.7 [2] was inactive.
